Source: the NIST ThermoML archive (doi:10.1021/je3013414)
± gives the expanded uncertainty stated by the source.

Key:
[1] = 101.33 kPa, Liquid, Vibrating tube method
[2] = refractive index (Na D-line) (dimensionless); settings: 298.15 K; 101.33 kPa; Liquid; Standard Abbe refractometry

mass density ([1]; 303.15 K) [kg/m3] | mass density ([1]; 313.15 K) [kg/m3] | mass density ([1]; 323.15 K) [kg/m3] | mass density ([1]; 333.15 K) [kg/m3] | mass density ([1]; 343.15 K) [kg/m3] | mass density ([1]; 353.15 K) [kg/m3] | mass density ([1]; 363.15 K) [kg/m3] | refractive index [2] | SMILES
1361.3 ± 1.7 | 1353 ± 1.6 | 1344.8 ± 1.6 | 1336.7 ± 1.6 | 1328.5 ± 1.6 | 1320.5 ± 1.6 | 1312.4 ± 1.5 | 1.4106 ± 0.0005 | CCCCn1cc[n+](C)c1.F[P-](F)(F)(F)(F)F [1-butyl-3-methylimidazolium hexafluorophosphate]
1233.7 ± 1.4 | 1226.9 ± 1.3 | 1220.2 ± 1.3 | 1213.6 ± 1.3 | 1207 ± 1.3 | 1200.4 ± 1.3 | 1193.9 ± 1.3 | 1.4106 ± 0.0005 | CCOS(=O)(=O)[O-].CCn1cc[n+](C)c1 [1-ethyl-3-methylimidazolium ethyl sulfate]
